Data as given in ChEMBL document CHEMBL3132797, “Synthesis and biological evaluation of substituted N-alkylphenyl-3,5-dinitrobenzamide analogs as anti-TB agents” (Medchemcomm, 2014).
In brackets after ≈: the same amount, converted by molar mass.

Legend:
[1] = test system: Mycobacterium tuberculosis; assay: Antimycobacterial activity against Mycobacterium tuberculosis H37Rv ATCC 27294 by broth dilution method; assay type: functional
[2] = Elimination half life in Balb mouse at 2.5 mg/kg, ip; assay type: ADME, organism-based; parameters: dose 2.5 mg/kg, route intraperitoneal; details: in vivo, read-out: beta t1/2 (converted)
[3] = Bioavailability in Balb mouse at 2.5 mg/kg, ip; assay type: ADME, organism-based; details: in vivo
[4] = test system: Mycobacterium tuberculosis; assay: Bactericidal activity against Mycobacterium tuberculosis H37Rv ATCC 27294 by broth dilution method; assay type: functional
J774 [5] = assay: Cytotoxicity against mouse J774 cells at 20 ug/ml after 24 hrs by MTT assay; assay type: cell-based; details: j774, 24 h
J774 [6] = assay: Cytotoxicity against mouse J774 cells after 24 hrs by MTT assay; assay type: cell-based; details: J774, 24 h
[7] = Selectivity index, ratio of IC50 for mouse J774 cells to MIC for Mycobacterium tuberculosis H37Rv ATCC 27294; assay type: toxicity, cell-based; details: read-out: Selectivity Index
[8] = test system: Mycobacterium tuberculosis; assay: Antimycobacterial activity against Mycobacterium tuberculosis H37Rv ATCC 27294 infected in mouse J774 cells assessed as intracellular killing after 48 hrs by colony formation assay; assay type: functional; details: H37Rv ATCC 27294, 48 h
[9] = AUC (0 to t) in Balb mouse at 1 mg/kg, iv; assay type: ADME, organism-based; parameters: dose 1 mg/kg, route intravenous; details: plasma
[10] = Clearance in Balb mouse at 1 mg/kg, iv; assay type: ADME, organism-based; parameters: dose 1 mg/kg, route intravenous; details: in vivo
[11] = AUC (0 to t) in Balb mouse at 2.5 mg/kg, ip; assay type: ADME, organism-based; parameters: dose 2.5 mg/kg, route intraperitoneal; details: plasma
[12] = Tmax in Balb mouse at 2.5 mg/kg, ip; assay type: ADME, organism-based; parameters: dose 2.5 mg/kg, route intraperitoneal; details: in vivo
[13] = Elimination half life in Balb mouse at 1 mg/kg, iv; assay type: ADME, organism-based; parameters: dose 1 mg/kg, route intravenous; details: in vivo, read-out: beta t1/2 (converted)
[14] = Cmax in Balb mouse at 1 mg/kg, iv; assay type: ADME, organism-based; parameters: dose 1 mg/kg, route intravenous; details: in vivo
[15] = Cmax in Balb mouse at 2.5 mg/kg, ip; assay type: ADME, organism-based; parameters: dose 2.5 mg/kg, route intraperitoneal; details: in vivo

COc1ccc([C@@H](C)NC(=O)c2cc([N+](=O)[O-])c(C)c([N+](=O)[O-])c2)cc1
MIC [1]: 0.7 µM (≈ 0.252 µg/mL)

C[C@@H](NC(=O)c1cc([N+](=O)[O-])cc([N+](=O)[O-])c1)c1ccc(F)cc1
MIC [1]: > 12 µM

C[C@H](c1ccccc1)N(C)C(=O)c1cc([N+](=O)[O-])cc([N+](=O)[O-])c1
MIC [1]: 1.52 µM (≈ 0.501 µg/mL)

Cc1c([N+](=O)[O-])cc(C(=O)N[C@@H](C)c2ccc(F)cc2)cc1[N+](=O)[O-]
half-life [2]: 64.8 min | MIC [1]: 0.04 µM (≈ 0.0139 µg/mL) | bioavailability [3]: 35% | MBC [4]: < 0.04 µM | Activity (J774 [5]): Non-toxic | IC50 (J774 [6]): > 57.6 µM | selectivity ratio [7]: > 1330 | MIC [8]: < 0.64 µM | AUC(0-t) [9]: 0.374 µM·h | clearance [10]: 111 mL/min/kg | AUC(0-t) [11]: 0.351 µM·h | Tmax [12]: 15 min | half-life [13]: 54 min | Cmax [14]: 711 nM | Cmax [15]: 216 nM

Cc1ccc([C@@H](C)NC(=O)c2cc([N+](=O)[O-])c(C)c([N+](=O)[O-])c2)cc1
half-life [2]: 97.8 min | MIC [1]: 0.09 µM (≈ 0.0309 µg/mL) | bioavailability [3]: 49% | MBC [4]: 0.72 µM (≈ 0.247 µg/mL) | Activity (J774 [5]): Non-toxic | IC50 (J774 [6]): > 58.2 µM | selectivity ratio [7]: > 666 | MIC [8]: 1.44 µM (≈ 0.494 µg/mL) | AUC(0-t) [9]: 0.352 µM·h | clearance [10]: 134 mL/min/kg | AUC(0-t) [11]: 0.431 µM·h | Tmax [12]: 30 min | half-life [13]: 55.8 min | Cmax [14]: 673 nM | Cmax [15]: 177 nM

CCC[C@@H](NC(=O)c1cc([N+](=O)[O-])cc([N+](=O)[O-])c1)c1ccccc1
MIC [1]: 2.91 µM (≈ 0.999 µg/mL)

Cc1c([N+](=O)[O-])cc(C(=O)N[C@H](C)c2ccc(F)cc2)cc1[N+](=O)[O-]
MIC [1]: 0.17 µM (≈ 0.059 µg/mL) | MBC [4]: 0.17 µM (≈ 0.059 µg/mL) | Activity (J774 [5]): Non-toxic | IC50 (J774 [6]): > 57.6 µM | selectivity ratio [7]: > 333 | MIC [8]: 0.71 µM (≈ 0.247 µg/mL)

O=C(NCCc1ccccc1)c1cc([N+](=O)[O-])cc([N+](=O)[O-])c1
MIC [1]: 0.79 µM (≈ 0.249 µg/mL) | MBC [4]: 0.79 µM (≈ 0.249 µg/mL) | Activity (J774 [5]): Non-toxic | IC50 (J774 [6]): > 63.5 µM | selectivity ratio [7]: > 80 | MIC [8]: 3.16 µM (≈ 0.996 µg/mL)

C[C@@H](NC(=O)c1cc([N+](=O)[O-])cc([N+](=O)[O-])c1)c1ccccc1
MIC [1]: 0.19 µM (≈ 0.0599 µg/mL) | MBC [4]: 0.19 µM (≈ 0.0599 µg/mL) | Activity (J774 [5]): Non-toxic | IC50 (J774 [6]): > 63.5 µM | selectivity ratio [7]: > 333 | MIC [8]: 0.76 µM (≈ 0.24 µg/mL)

Cc1ccc([C@@H](C)NC(=O)c2cc([N+](=O)[O-])cc([N+](=O)[O-])c2)cc1
MIC [1]: 0.05 µM (≈ 0.0165 µg/mL) | MBC [4]: 0.2 µM (≈ 0.0659 µg/mL) | Activity (J774 [5]): Non-toxic | IC50 (J774 [6]): > 60.8 µM | selectivity ratio [7]: > 1330 | MIC [8]: 0.8 µM (≈ 0.263 µg/mL)

O=C(NCCCc1ccccc1)c1cc([N+](=O)[O-])cc([N+](=O)[O-])c1
MIC [1]: 1.52 µM (≈ 0.501 µg/mL)

C[C@H](NC(=O)c1cc([N+](=O)[O-])cc([N+](=O)[O-])c1)c1ccc(Cl)cc1
MIC [1]: 1.43 µM (≈ 0.5 µg/mL)

CCCCCCCCCCCCCCCCNC(=O)c1cc([N+](=O)[O-])cc([N+](=O)[O-])c1
MIC [1]: 0.57 µM (≈ 0.248 µg/mL)

N#Cc1ccccc1NC(=O)c1cc([N+](=O)[O-])cc([N+](=O)[O-])c1
MIC [1]: 6.4 µM (≈ 2 µg/mL)

CC[C@@H](C)NC(=O)c1cc([N+](=O)[O-])cc([N+](=O)[O-])c1
MIC [1]: 1.87 µM (≈ 0.5 µg/mL)

CO[C@H]1/C=C/O[C@@]2(C)Oc3c(C)c(O)c4c(O)c(c(/C=N/N5CCN(C)CC5)c(O)c4c3C2=O)NC(=O)/C(C)=C\C=C\[C@H](C)[C@H](O)[C@@H](C)[C@@H](O)[C@@H](C)[C@H](OC(C)=O)[C@@H]1C [RIFAMPIN]
MIC [1]: 0.07 µM (≈ 0.0576 µg/mL)

CC[C@H](NC(=O)c1cc([N+](=O)[O-])cc([N+](=O)[O-])c1)c1ccccc1
MIC [1]: 3.04 µM (≈ 1 µg/mL)

COc1ccc(CCNC(=O)c2cc([N+](=O)[O-])cc([N+](=O)[O-])c2)cc1
MIC [1]: 1.45 µM (≈ 0.501 µg/mL)

C[C@H](NC(=O)c1cc([N+](=O)[O-])cc([N+](=O)[O-])c1)c1ccccc1
MIC [1]: > 3.17 µM

Cc1c([N+](=O)[O-])cc(C(=O)NCc2ccccc2)cc1[N+](=O)[O-]
MIC [1]: 0.38 µM (≈ 0.12 µg/mL)

Cc1c([N+](=O)[O-])cc(C(=O)N[C@H](C)c2ccc(Cl)cc2)cc1[N+](=O)[O-]
MIC [1]: 1.38 µM (≈ 0.502 µg/mL)

Cc1ccc(CNC(=O)c2cc([N+](=O)[O-])c(C)c([N+](=O)[O-])c2)cc1
MIC [1]: 0.09 µM (≈ 0.0296 µg/mL)

CCCCC[C@H](C)NC(=O)c1cc([N+](=O)[O-])cc([N+](=O)[O-])c1
MIC [1]: 1.62 µM (≈ 0.501 µg/mL)

C[C@H](NC(=O)c1cc([N+](=O)[O-])cc([N+](=O)[O-])c1)c1ccc(F)cc1
MIC [1]: 3 µM (≈ 1 µg/mL)

O=C(Nc1ccc(C(F)(F)F)cc1)c1cc([N+](=O)[O-])cc([N+](=O)[O-])c1
MIC [1]: 2.82 µM (≈ 1 µg/mL)

CCCCC[C@@H](C)NC(=O)c1cc([N+](=O)[O-])cc([N+](=O)[O-])c1
MIC [1]: 1.62 µM (≈ 0.501 µg/mL)

O=C(Nc1cccc(F)c1)c1cc([N+](=O)[O-])cc([N+](=O)[O-])c1
MIC [1]: 3.28 µM (≈ 1 µg/mL)

CC[C@H](C)NC(=O)c1cc([N+](=O)[O-])cc([N+](=O)[O-])c1
MIC [1]: > 3.74 µM

O=C(NC1CCCC1)c1cc([N+](=O)[O-])cc([N+](=O)[O-])c1
MIC [1]: 0.9 µM (≈ 0.251 µg/mL)

O=C(NCCCCc1ccccc1)c1cc([N+](=O)[O-])cc([N+](=O)[O-])c1
MIC [1]: 0.35 µM (≈ 0.12 µg/mL)

O=C(Nc1ccccc1F)c1cc([N+](=O)[O-])cc([N+](=O)[O-])c1
MIC [1]: 26.1 µM (≈ 7.96 µg/mL)

COc1ccc([C@@H](C)NC(=O)c2cc([N+](=O)[O-])cc([N+](=O)[O-])c2)cc1
MIC [1]: 2.9 µM (≈ 1 µg/mL)

O=C(NCc1ccccc1)c1cc([N+](=O)[O-])cc([N+](=O)[O-])c1
MIC [1]: 0.8 µM (≈ 0.241 µg/mL)

Cc1c([N+](=O)[O-])cc(C(=O)N[C@@H](C)c2ccc(Cl)cc2)cc1[N+](=O)[O-]
MIC [1]: > 5.51 µM

Cc1c([N+](=O)[O-])cc(C(=O)N[C@H](C)c2ccccc2)cc1[N+](=O)[O-]
MIC [1]: 0.36 µM (≈ 0.119 µg/mL)

Cc1ccc([C@H](C)NC(=O)c2cc([N+](=O)[O-])c(C)c([N+](=O)[O-])c2)cc1
MIC [1]: 11.7 µM (≈ 4 µg/mL)

CCCCCCNC(=O)c1cc([N+](=O)[O-])cc([N+](=O)[O-])c1
MIC [1]: 1.69 µM (≈ 0.499 µg/mL)

Cc1ccc(C(C)NC(=O)c2cc([N+](=O)[O-])c(C)c([N+](=O)[O-])c2)cc1 (racemic)
MIC [1]: < 0.17 µM | MBC [4]: < 0.04 µM | Activity (J774 [5]): Non-toxic | IC50 (J774 [6]): > 58.2 µM | selectivity ratio [7]: > 1330 | MIC [8]: 0.72 µM (≈ 0.247 µg/mL)

Cc1ccc([C@H](C)NC(=O)c2cc([N+](=O)[O-])cc([N+](=O)[O-])c2)cc1
MIC [1]: 0.76 µM (≈ 0.25 µg/mL)

CCCCC(CC)CNC(=O)c1cc([N+](=O)[O-])cc([N+](=O)[O-])c1 (centres undefined)
MIC [1]: 0.19 µM (≈ 0.0614 µg/mL)

O=C(Nc1cc(Cl)cc(Cl)c1)c1cc([N+](=O)[O-])cc([N+](=O)[O-])c1
MIC [1]: 22.5 µM (≈ 8.02 µg/mL)

C[C@@H](NC(=O)c1cc([N+](=O)[O-])cc([N+](=O)[O-])c1)c1ccc(Cl)cc1
MIC [1]: 0.17 µM (≈ 0.0595 µg/mL)

CC[C@@H](NC(=O)c1cc([N+](=O)[O-])cc([N+](=O)[O-])c1)c1ccccc1
MIC [1]: 0.76 µM (≈ 0.25 µg/mL)

COc1ccc([C@H](C)NC(=O)c2cc([N+](=O)[O-])cc([N+](=O)[O-])c2)cc1
MIC [1]: 0.35 µM (≈ 0.121 µg/mL)

CC(C)c1ccc(NC(=O)c2cc([N+](=O)[O-])cc([N+](=O)[O-])c2)cc1
MIC [1]: 12.1 µM (≈ 4 µg/mL)

O=C(Nc1ccc(OC(F)(F)F)cc1)c1cc([N+](=O)[O-])cc([N+](=O)[O-])c1
MIC [1]: 2.7 µM (≈ 1 µg/mL)

O=C(Nc1ccccc1C(F)(F)F)c1cc([N+](=O)[O-])cc([N+](=O)[O-])c1
MIC [1]: 1.41 µM (≈ 0.501 µg/mL)

O=C(Nc1ccc(F)cc1)c1cc([N+](=O)[O-])cc([N+](=O)[O-])c1
MIC [1]: > 1.63 µM

Cc1ccc(CCNC(=O)c2cc([N+](=O)[O-])cc([N+](=O)[O-])c2)cc1
MIC [1]: 1.52 µM (≈ 0.501 µg/mL)

Cc1ccc(CNC(=O)c2cc([N+](=O)[O-])cc([N+](=O)[O-])c2)cc1
MIC [1]: 3.17 µM (≈ 0.999 µg/mL)

COc1ccc([C@H](C)NC(=O)c2cc([N+](=O)[O-])c(C)c([N+](=O)[O-])c2)cc1
MIC [1]: 1.39 µM (≈ 0.499 µg/mL)
